Measured values reported in patent US9334473B2, “Three dimensional cell culture compositions and methods of use” (priority 2012, dated 2016).

Test system: human neutrophils
Experiment: Chemotaxis of neutrophils suspended inside G041 substrate in a gradient
Assay type: cell-based
Conditions: 45-minute video
Source text: For materials in the Examples 2-4, substrates were punched or cut into shapes, sterilized and used to setup gradients of one or more ingredients. In some tests, gradients were further applied to cells in culture. In other tests, suspension of uncultured cells was suspended inside the substrate to which a gradient was applied.
As shown in Example 9 (Brain Culture #5) cells survived without free (substrate-unbound) medium, if overlapped by another substrate with the embedded medium. Accordingly, molecule diffusion studies, and this included gradients formed in one or more substrates, were maintained for longer periods of time without significant gradient “dilution” (by otherwise present surrounding pool of medium) when applied to cells in culture (or to uncultured cells suspended inside the substrate) by way of a substrate overlap method. In short term studies in a humidified incubator, neutrophils were exposed to a gradient inside the substrate, and the substrate was not overlapped by another substrate, yet a significant fraction of cells taxed in a suitable gradient.

Interleukin 8: cytokine applied as a gradient to neutrophils
Chemotaxis in applied gradient: Chemotaxis of human neutrophils
